Results from US11850266B2, “Cardiomyocytes and compositions and methods for producing the same” (President and Fellows of Harvard College, priority 2019, dated 2023).

Key:
Type in all cases: cell-based, human
[1] = test system: iPSC-derived cardiomyocytes; assay: Western analysis of protein expression in iPSC-derived cardiomyocytes
Method: (§1) To prepare for differentiation, iPSCs were plated at a density between 20,000 to 80,000 cells (depending on the cell line) per well of a 12-well plate at four days prior to onset of differentiation. Cells were differentiated according to the protocol previously described by Lian et al. with some modifications (FIG. 1A) (1). Basal media was changed from StemFlex to RPMI/B27 on day 0 of differentiation. The GSK3 inhibitor, CHIR99021 (6 μM), was added for 48 hours from day 0 to day 2 of differentiation when cells were approximately 70-80% confluent. The Wnt antagonist IWP4 (5 μM) was added from days 2 to 4 of differentiation. Insulin (10 μg/ml) was added to the media starting on day 7 of differentiation, and media was changed every 2-3 days. In general, higher purity (TNNT2+) cardiomyocytes were observed when beating initiated prior to day 10 of differentiation, therefore only batches with onset of beating between days 7-10 of differentiation were included in this study. Beating cardiomyocytes were treated with Torin1 (200 nM, unless otherwise noted) or vehicle (0.02% dimethylsulfoxide (DMSO)) beginning at ˜2 days after onset of beating for 7 days (media changed with fresh Torin1 or DMSO every 2-3 days), unless otherwise noted. After Torin1 treatment, media was switched back to RPMI/B27/insulin and maintained with media change every 2-3 days until endpoint assay. In a few assays, fatty acids were added in the form of chemically defined lipids (Gibco) diluted 1:1000 simultaneous with Torin1 treatment. In some other assays, fetal bovine serum (10% FBS) was added to cells after completion of Torin treatment for 2-4 days.
Cells were lysed with lysis buffer (1% Triton X, 0.35% Na-deoxycholate, 1 mM EDTA, 1% protease inhibitor cocktail (Sigma), 1% phosphatase inhibitor cocktail 2 (Sigma), 1% phosphatase inhibitor cocktail 3 (Sigma), 1 mM phenylmethylsulfonyl fluoride (PMSF)) and total protein was measured with the Pierce BCA Protein Assay Kit. Samples with equal total protein quantities (prepared in Laemmli Sample Buffer (Bio-Rad)) were loaded into a Mini-Protean TGX Precast Gel (Bio-Rad) and electrophoresed for 1 hour at 100 V before transfer to a PVDF membrane using the Trans-Blot Turbo Transfer System (Bio-Rad). The Precision Plus Protein Dual Color Standards molecular weight ladder was used to estimate molecular weight of detected bands (Bio-Rad). Membranes were blocked with 5% milk or bovine serum albumin then incubated with the primary antibody (Table 2) overnight at 4 degrees C. followed by incubation with the horseradish peroxidase-conjugated secondary antibody (Table 2) for 1 hour at room temperature. The Amersham ECL Western Blotting Detection kit was used to detect the protein signal by chemiluminescence, and band densities were quantified using ImageJ software (NIH).

[2] = test system: TNNT2+ iPSC-derived cardiomyocytes; assay: Cell cycle analysis by flow cytometry (Hoechst 33342 / pyronin Y) of TNNT2+ cardiomyocytes
Method: as §1
Cells were dissociated and 5×10^5 to 1×10^6 cells were used per condition. For cell cycle analysis, 5×10^5 cells per condition were fixed in 70% cold ethanol for at least 2 hours to overnight at −20 degrees C. Cells were stained first with AlexaFluor 647-TNNT2 in Permeabilization Buffer (Thermo) then with Hoechst 33342 (2 μg/ml) and pyronin Y (4 μg/ml) for 20 minutes to distinguish between cells in G0, G1, and S-G2-M phases. For other stains, cells were fixed in eBioscience Intracellular Fixation buffer for 30 minutes followed washing twice in eBioscience Permeabilization Buffer and stained with the appropriate primary antibody (Table 2) in eBioscience FACS Staining buffer for 30-60 minutes. If a secondary antibody was used, cells were incubated with the appropriate secondary antibody (Table 2) for 30-60 minutes. The geometric mean fluorescence intensity (MFI) was quantified for TNNT2 and Kir2.1 antibodies. Data were acquired via a BD LSRII instrument and analyzed using FlowJo software.

[3] = test system: iPSC-derived cardiomyocytes; assay: Calcium transients (Fluo-4 AM) analysis with Vala Kinetic Image Cytometer; conditions: Torin1 treatment, FIG. 14
Method: To perform calcium transients analysis, 50 ul of 10 ug/ml Hoeschst 33258 and 5 μM Fluo-4 AM was added to each well of a 96 well plate and incubated for 10 minutes at 37 degrees. Media was replaced with RPMI without phenol red supplemented with 1:100 Oxyfluor and 10 uM sodium lactate. Isoproterenol (1 μM) was added to the media for isoproterenol experiments. Pacing protocol was 5 seconds delay without pacing followed by 5 seconds pacing at 1 Hz and 5 seconds imaging without pacing. Imaging was performed using the Vala Kinetic Image Cytometer at 30 fps with 33.30 ms exposure at 14.25 intensity. Stimulation pulse was 5 ms with 15V voltage. Data was collected by CyteSeer analysis program.

[4] = test system: iPSC-derived cardiomyocytes; assay: Mitochondrial DNA to nuclear DNA ratio, MitoTracker and MitoProbe JC-1 assays
Method: The mitochondrial DNA to nuclear DNA ratio was quantified with qPCR. DNA was extracted from cardiomyocytes using the PureLink genomic DNA mini kit (Invitrogen). Primers for DNA to mitochondrial gene NADH dehydrogenase 1 (ND1) and nuclear gene lipoprotein lipase gene (LPL) were used (10).
Live iPSC-derived cardiomyocytes were stained using MitoTracker Green FM (Invitrogen) or the MitoProbe JC-1 assay kit (Invitrogen) according to the manufacturer's instructions. Cells were evaluated by flow cytometry and mean fluorescence intensity (MFI) of all live cells was quantified. For JC-1, the ratio of red to green MFI for vehicle versus Torin1-treated cells was quantified and normalized to control.

[5] = Torin1 0-200 nM 4 days prior to harvest on day 22, BJRiPS, FIG. 11
[6] = Torin1 200 nM 7 days, BJRiPS-CMs

CCC(=O)N1CCN(c2ccc(-n3c(=O)ccc4cnc5ccc(-c6cnc7ccccc7c6)cc5c43)cc2C(F)(F)F)CC1 [Torin1]
TNNI1 protein levels ([1]; FIG. 2B, RNA levels not increased): increase in TNNI1 protein levels | GATA4 protein expression ([1]; FIG. 5A): trend toward increased protein expression | expression of fatty acid receptor CD36 ([1]; FIG. 13C, BJRiPS-CM): trend toward increased expression | p21 protein expression ([1]; Torin1 0, 10, 50, 200 nM 7 days, FIG. 5A): dose-dependent decrease | p53 protein (total and phosphorylated) ([1]; Torin1 0, 10, 50, 200 nM 7 days, Gibco iPS-CM, FIG. 5A): dose-dependent increase | TNNI3 protein, late treatment [1, 5]: increases expression of TNNI3 | p21 protein, late treatment [1, 5]: decreases expression of p21 | TNNTI3 by western analysis ([1]; Torin1 10, 50, 200 nM 4 days, BJRiPS, FIGS. 18F-18G): significant increase in TNNTI3 | TNNI3 protein (western, densitometry) ([1]; Torin1 10, 50, 200 nM, 4 days, days 25-29, BJRiPS, FIG. 31): increased protein expression | TNNT2 and TNNI3 protein expression by western analysis ([1]; Torin1 7 days, Gibco iPS-CMs, FIG. 2B): dose-dependent increase | percentage of Torin1-treated cells in G0 after 10% FBS ([2]; 10% FBS 48 hours starting two days after completion of Torin1, FIG. 1I): significant decrease | quiescent (G0) cells ([2]; Torin1 200 nM 1 week, vehicle control 24%, FIG. 1G): 48% | G1 cells ([2]; Torin1 200 nM 1 week, vehicle control 47%, FIG. 1G): 27% | percentage of quiescent (G0) TNNT2+ cardiomyocytes versus control ([2]; nutlin-3a 10 μM 24 hours, Torin1 200 nM 7 days, or both, BJRiPS-CMs, FIG. 6B): increased the percentage of quiescent (G0) TNNT2+ cardiomyocytes | percentage of TNNT2+ cardiomyocytes in G1 phase versus control ([2]; nutlin-3a 10 μM 24 hours, Torin1 200 nM 7 days, or both, FIG. 6B): decreased the percentage of TNNT2+ cardiomyocytes in G1 phase | calcium peak rise time, peak decay time and FWHM time [3]: significant decreases | MFI of MitoTracker by flow cytometry [4, 6]: decreased MFI | mitochondrial to nuclear DNA ratio [4, 6]: decreased | mitochondrial membrane polarization (MitoProbe JC-1 red:green ratio) ([4]; Torin1 1 week, FIG. 3E): significant increase in mitochondrial membrane polarization
